Data published in article PMC10817097, “Caffeic Acid Phosphanium Derivatives: Potential Selective Antitumor, Antimicrobial and Antiprotozoal Agents” (International Journal of Molecular Sciences, 2024).
≈ marks a conversion by molar mass, not a printed value.

How the values were obtained:
Type in all cases: cell-based
[1] = test system: Klebsiella pneumoniae CCM 4415; test: Broth microdilution MIC and MBC; settings: for MIC: CCM4415, K. pneumoniae CCM 4415; for MBC: CCM4415, K. pneumoniae CCM 4415, inactivating 99.9% of inoculum
Description: (§1) The antimicrobial activity of caffeic acid and its semi-synthetic derivates was tested against Gram-positive (Staphylococcus aureus CCM 4750, methicillin-resistant; Staphylococcus aureus CCM 4223, methicillin-susceptible; Enterococcus faecalis CCM 4224) and Gram-negative bacteria (Pseudomonas aeruginosa CCM 3955; Escherichia coli CCM 3954; Klebsiella pneumoniae CCM 4415; Proteus mirabilis CCM 7188), and one strain of a yeast Candida albicans (CCM 8267). Microbial strains were purchased from the Czech Collection of Microorganisms, Brno, Czech Republic, and preserved in aliquots in cryoprotective media at −20 °C until the testing. Revival of cryoprotected bacteria took place by overnight cultivation on blood agar and an additional passage on blood agar. Minimal inhibitory concentrations (MIC) against bacteria were detected by broth microdilution test in sterile 96-well U-shaped microtiter plates (Roll s.a.s., Piove di Sacco, Italy) according to the EUCAST recommendations. The test was performed in 100 μL volumes in microtiter plate wells with a final bacterial concentration of 5 × 10^5 CFU·mL^−1. Antifungal activity testing was performed according to the EUCAST-recommended method for the determination of broth dilution minimum inhibitory concentrations of antifungal agents for yeasts, with some modifications. The final yeast concentration in the test wells was 10^4 CFU·mL^−1. The minimal bactericidal/fungicidal concentrations (MBC/MFC) were detected by point-inoculation of 5 μL aliquots from test wells without visible growth on solid agar media free of antimicrobials. Mueller–Hinton broth and agar were used for bacteria, and Sabouraud dextrose broth and agar for fungi (OXOID, Basingstoke, Hampshire, UK). The tested agents were dissolved in 50% ethanol, and serial dilutions were prepared in the test medium to obtain final concentrations ranging from 5000 to 5 μg·mL^−1, which corresponds to 27,753—54 μM for caffeic acid, 7251—14 μM for CAP 6, 6967—14 μM for CAP 8, 6705—13 μM for CAP 10 and 6462—13 μM for CAP 12. Wells with media free of bacteria served as sterility control and wells with bacteria without antimicrobial agents were used as growth control. The MIC was determined to be the lowest concentration of the antimicrobial agent inhibiting the growth of the tested microorganism, and the MBC/MFC was determined to be the lowest concentration, inactivating 99.9% of microbial inoculum. All tests were performed in three independent runs to exclude possible excessive values due to permissible measurement error.

[2] = test system: Pseudomonas aeruginosa CCM 3955; test: Broth microdilution MIC and MBC; settings: for MIC / MBC: Pseudomonas aeruginosa, CCM3955, P. aeruginosa CCM 3955; for MBC: inactivating 99.9% of inoculum
Description: as §1

S. aureus (MS) CCM 4223 = test: Broth microdilution MIC and MBC; settings: Staphylococcus aureus, CCM4223, S. aureus methicillin-susceptible CCM 4223; for MBC: inactivating 99.9% of inoculum
Description: as §1

[3] = test system: Staphylococcus aureus (MR) CCM 4750; test: Broth microdilution MIC and MBC; settings: for MIC: CCM4750, S. aureus methicillin-resistant CCM 4750; for MBC: CCM4750, S. aureus methicillin-resistant CCM 4750, inactivating 99.9% of inoculum
Description: as §1

[4] = test system: Escherichia coli CCM 3954; test: Broth microdilution MIC and MBC; settings: for MIC: CCM3954, E. coli CCM 3954; for MBC: CCM3954, E. coli CCM 3954, inactivating 99.9% of inoculum
Description: as §1

[5] = test system: Enterococcus faecalis CCM 4224; test: Broth microdilution MIC and MBC; settings: for MIC: CCM4224, E. faecalis CCM 4224; for MBC: CCM4224, E. faecalis CCM 4224, inactivating 99.9% of inoculum
Description: as §1

[6] = test system: Proteus mirabilis CCM 7188; test: Broth microdilution MIC and MBC; settings: for MIC: CCM7188, P. mirabilis CCM 7188; for MBC: CCM7188, P. mirabilis CCM 7188, inactivating 99.9% of inoculum
Description: as §1

[7] = test system: NIH 3T3 (murine fibroblasts); test: MTS cell proliferation/viability assay, control cells; settings: Mus musculus, NIH3T3, NIH 3T3 control cells, 72 h
Description: (§2) The human cancer cell line HCT116 (human colorectal adenocarcinoma), HeLa (human cervical adenocarcinoma), Jurkat (human leukemic T cell lymphoma), and MDA-MB-231 (human mammary gland adenocarcinoma, triple-negative) were cultured in RPMI 1640 medium (Biosera, Kansas City, MO, USA). MCF-7 (human breast adenocarcinoma), A2058 (human metastatic melanoma), PANC-1 (human pancreatic adenocarcinoma), and NIH 3T3 (murine fibroblasts) cell lines were maintained in a growth medium consisting of high glucose Dulbecco’s Modified Eagle Medium with sodium pyruvate (Biosera, Kansas City, MO, USA). MCF-10A cell line (human mammary gland epithelial cells) was maintained in a growth medium consisting of high glucose DMEM F12 Medium (Biosera, Kansas City, MO, USA) + Suppl. (insulin, EGF-[…], HC-hydrocortisone, choleratoxin all Sigma, Steinheim, Germany). The growth medium was supplemented with a 10% fetal bovine serum, penicillin (100 IU/mL), and streptomycin (100 μg/mL) (all Invitrogen, Carlsbad, CA, USA), and cells were maintained in an atmosphere containing 5% CO2 in humidified air at 37 °C. Cell viability, estimated by trypan exclusion, was greater than 95% before each experiment.
(§3) The metabolic activity colorimetric assay (MTS) was used to determine the effects of CA (c = 10–300 µM) and compounds CAP 6, CAP 8, CAP 10, and CAP 12 (c = 1–100 µM) on the metabolic activity of several cell lines. After 72 h of incubation, 10 µL of MTS (Promega, Madison, WI, USA) was added to each well according to the CellTiter 96® AQueous One Solution Cell Proliferation Assay protocol. After a minimum of 1 h incubation, the absorbance was measured at 490 nm using the automated Cytation^TM 3 Cell Imaging Multi-Mode Reader (Biotek, Winooski, VT, USA). The absorbance of the control wells was taken as 1.0 (100%), and the results were expressed as a fold of the control. All experiments were performed in triplicate. Ideal predictive IC50 values were calculated from MTS analyses-based concentration concentration-dependent trends.

[8] = test system: MCF-10A cell line (human mammary gland epithelial cells); test: as above; settings: MCF-10A control cells, 72 h
Description: as §2, §3

[9] = test system: Candida albicans CCM 8267; test: Broth dilution MIC and MFC for yeasts; settings: for MIC: CCM8267, C. albicans CCM 8267; for MFC: CCM8267, C. albicans CCM 8267, inactivating 99.9% of inoculum
Description: as §1

| MIC [1] | MIC [2] | MIC (S. aureus (MS) CCM 4223) | MIC [3] | MIC [4] | MIC [5] | MIC [6] | MIC [9] | MIC/MBC ([2]; P. aeruginosa, corresponding to the μM value) | SMILES | MBC [1] | MBC [2] | MBC (S. aureus (MS) CCM 4223) | MBC [3] | MBC [4] | MBC [5] | MBC [6] | IC50 [7] | IC50 [8] | MFC [9] |
| --- | --- | --- | --- | --- | --- | --- | --- | --- | --- | --- | --- | --- | --- | --- | --- | --- | --- | --- | --- |
| 28 µM | 453 µM | 14 µM | 14 µM | 227 µM | 57 µM | 453 µM | 57 µM | – | CC(=O)Oc1ccc(/C=C/C(=O)OCCCCCC[P+](c2ccccc2)(c2ccccc2)c2ccccc2)cc1OC(C)=O [CAP 6, P,P,P-triphenyl-6-{(2E)-3-[3,4-(diacetyloxy)penyl]prop-2-enoyloxy}hexane-1-phosphanium bromide] | 28 µM | 453 µM | 14 µM | 14 µM | 227 µM | 57 µM | 453 µM | 44.4 ± 2.6 µM | 53.7 ± 0.2 µM | 57 µM |
| 6940 µM (≈ 1250 µg/mL) | 3470 µM (≈ 625 µg/mL) | 6940 µM (≈ 1250 µg/mL) | 6940 µM (≈ 1250 µg/mL) | 6940 µM (≈ 1250 µg/mL) | 13900 µM (≈ 2500 µg/mL) | 6940 µM (≈ 1250 µg/mL) | 13900 µM (≈ 2500 µg/mL) | 625 µg/mL (≈ 3.47 mM) | O=C(O)C=Cc1ccc(O)c(O)c1 [CA, 3-(3,4-dihydroxyphenyl)-2-propenoic acid, reference compound] | 6940 µM (≈ 1250 µg/mL) | 3470 µM (≈ 625 µg/mL) | 13900 µM (≈ 2500 µg/mL) | 13900 µM (≈ 2500 µg/mL) | 13900 µM (≈ 2500 µg/mL) | 27800 µM (≈ 5000 µg/mL) | 6940 µM (≈ 1250 µg/mL) | > 300 µM | > 300 µM | 13900 µM (≈ 2500 µg/mL) |
| 27 µM | 871 µM | 14 µM | 27 µM | 435 µM | 27 µM | 218 µM | 27 µM | – | CC(=O)Oc1ccc(/C=C/C(=O)OCCCCCCCC[P+](c2ccccc2)(c2ccccc2)c2ccccc2)cc1OC(C)=O [CAP 8, P,P,P-triphenyl-8-{(2E)-3-[3,4-(diacetyloxy)penyl]prop-2-enoyloxy}okctane-1-phosphanium bromide] | 27 µM | 871 µM | 14 µM | 27 µM | 435 µM | 27 µM | 435 µM | 38.2 ± 1.8 µM | 42.3 ± 1.1 µM | 27 µM |
| 404 µM | 404 µM | 50 µM | 25 µM | 808 µM | 25 µM | 404 µM | 25 µM | – | CC(=O)Oc1ccc(/C=C/C(=O)OCCCCCCCCCCCC[P+](c2ccccc2)(c2ccccc2)c2ccccc2)cc1OC(C)=O [CAP 12, P,P,P-triphenyl-12-{(2E)-3-[3,4-(diacetyloxy)penyl]prop-2-enoyloxy}dodecane-1-phosphanium bromide] | 404 µM | 808 µM | 50 µM | 25 µM | 808 µM | 25 µM | 404 µM | 32.5 ± 0.9 µM | 33.7 ± 1.5 µM | 25 µM |
| 105 µM | 838 µM | 13 µM | 13 µM | 419 µM | 26 µM | 210 µM | 13 µM | – | CC(=O)Oc1ccc(/C=C/C(=O)OCCCCCCCCCC[P+](c2ccccc2)(c2ccccc2)c2ccccc2)cc1OC(C)=O [CAP 10, P,P,P-triphenyl-10-{(2E)-3-[3,4-(diacetyloxy)penyl]prop-2-enoyloxy}decane-1-phosphanium bromide] | 105 µM | 676 µM | 13 µM | 26 µM | 419 µM | 26 µM | 419 µM | 28 ± 1.3 µM | 31.1 ± 2.3 µM | 13 µM |
